The results in this text go back to US10772858B2, “Benzhydrol derivatives for the management of conditions related to hypoxia inducible factors” (GEORGIA STATE UNIVERSITY RESEARCH FOUNDATION, priority 2015, dated 2020).

The structures appear in SMILES notation.

The assay deals with LN229HRE-luc/lacZ cells (VEGF HRE, HIF-1 target). Description: Inhibition of hypoxia-inducible gene expression driven by HRE-reporter construct (firefly luciferase) in glioma cells. In kind it is cell-based. To be noted: Homo sapiens, Glioma cell; firefly luciferase activity in LN229HRE-luc/LacZ cells, 1 hour pretreatment under normoxia, then hypoxia (1% O2); from dose-response curves. The procedure:
Inhibition of Hypoxia-Inducible Gene Expression Driven by Exogenous HRE-Reporter Constructs in Glioma Cells
LN229HRE-luc/lacZ cells were generated by stably transfecting human LN229 glioma cells with a bidirectional reporter construct (pBIGL-V6R) in which the firefly luciferase and LacZ reporter genes are under the control of 6 head to tail tandem copies of the VEGF HRE (hypoxia-responsive element—endogenous HIF-1 target gene) in rightward orientation (clone LN229V6R#18; Hygro selection […]) as reported in Yin et al. Clinical Cancer Research, 2012, 1-11.
Cells were pretreated with different doses of test compounds or 1% DMSO (final concentration in media) vehicle control for 1 hour under normoxia (21% O2); then incubation continued under normoxia or hypoxia (1% O2) using a hypoxia incubator (Thermo Forma model 3130). Firefly luciferase activities in lysates of LN229HRE-luc/LacZ cells were measured with a Dual-Luciferase Reporter Assay System (Promega) in a 20/20 n Luminometer (Promega). The IC50 (μM) value for each individual compound was established from the dose-response curves.
As a reminder, the IC50 is the concentration needed to halve the response being measured. For `COc1ccc(C(=O)c2cccc(COC3CCN(C(=O)OC(C)(C)C)CC3)c2)cc1OC` [36f], the IC50 was above 5 µM.

In the case of `CCCOCc1ccc(C(O)c2ccc(OCOC)cc2)cc1` (stereo not shown) [3r], the IC50 is above 5 µM.

For the compound `CCCOCc1cccc(C(O)c2ccc(OC)cc2OC)c1` (stereo not shown) [6i], the IC50 is 5 µM.

As for `COc1ccc(C(O)c2ccc(CN3CCN(C(=O)OC(C)(C)C)CC3)cc2)cc1OC` (stereo not shown) [21b], the IC50 was found to be 1.49 µM.

On to `COc1ccc(C(O)c2cc3c(c(OC)c2)OC(C)(C)C=C3)cc1OC` (stereo not shown) [26c], for which the IC50 was 3.1 µM.

Regarding `COc1ccc(C(O)c2ccc(CO[C@H]3CCOC3)cn2)cc1OC` (stereo partly shown) [3d], the IC50 was above 5 µM.

`COc1ccc(C(O)c2ccc(OCC3CCN(C(=O)OC(C)(C)C)CC3)cc2C)cc1OC` (stereo not shown) [35d]: the IC50 turned out to be 0.33 µM.

Turning to `CCCCOc1ccc2cc(C(O)c3ccc(OC)c(OC)c3)ccc2c1` (stereo not shown) [32c], the 50% inhibitory concentration (IC50) amounted to 3.33 µM.

With `CCCCOCc1cccc(C(O)c2cccc(OCCCC)c2)c1` (stereo not shown) [9d], the IC50 was above 5 µM.

With `COc1ccc(C(O)c2ccc(CO[C@H]3CCOC3)cc2)cc1OC` (stereo partly drawn) [3a, (3,4-Dimethoxyphenyl)(4-((((S)-tetrahydrofuran-3-yl)oxy)methyl)phenyl)methanol], the IC50 came to 0.3 µM.

`COc1ccc(C(O)c2cccc(COC3CCN(C(=O)OC(C)(C)C)CC3)c2)c(OC)c1` (stereo not shown) [6c]: the IC50 amounted to 0.55 µM.

Consider `COc1ccc(C(O)c2ccccc2)cc1OC` (stereo not shown) [24a], for which the IC50 came out at 2.2 µM.

Consider `COc1ccc(C(O)c2ccc(COC3CCCCC3)cc2)c(OC)c1` (stereo not shown) [3h], for which the IC50 came out at 0.68 µM.

For the compound `COc1ccc(C(O)c2ccc(N3CCN(C)CC3)cc2)cc1OC` (stereo not shown) [24d], the IC50 is above 5 µM.

For `COc1ccc(C(O)c2ccc3c(c2)C=CC(C)(C)O3)cc1OC` (stereo not shown) [26a], the 50% inhibitory concentration (IC50) was 0.6 µM.

Take `CCCCOCc1ccc(C(O)c2cccc(OCc3ccccc3)c2)cc1` (stereo not shown) [3q]: the IC50 was above 5 µM.

As to `COc1ccc(C(O)c2ccc(OC(C)C)cn2)cc1OC` (stereo not shown) [15c], the IC50 was above 5 µM.

Consider `COc1ccc(C(O)c2ccc3c(n2)CCC(C)(C)O3)cc1OC` (stereo not shown) [27d], for which the IC50 was 2.3 µM.

As for `CCCCOc1ccc(C(O)c2ccc(OC)cc2OC)nc1` (stereo not shown) [15b], the IC50 is above 5 µM.

For the compound `COc1cccc(C(O)c2ccc3c(c2)C=CC(C)(C)O3)c1` (stereo not shown) [26b], the IC50 was above 5 µM.

For the compound `CCCCOCc1cccc(C(O)c2ccc(OCc3ccccc3)c(OCC)c2)c1` (stereo not shown) [6p], the IC50 is 0.62 µM.

Turning to `COc1ccc(C(O)c2ccc(C3CCCO3)cc2)cc1OC` (stereo not shown) [24e], the IC50 worked out at 5 µM.

With `CCCCOCc1cccc(C(O)c2cccc(OCOC)c2)c1` (stereo not shown) [9c], the concentration for half-maximal inhibition (IC50) is above 5 µM.

`COc1ccc(C(O)c2ccc(CN3CCOCC3)cn2)cc1OC` (stereo not shown) [21a]: the IC50 was above 5 µM.

As for `COc1ccc(C(O)c2ccc(COC3CN(C(=O)OC(C)(C)C)C3)cc2)cc1OC` (stereo not shown) [3s], the IC50 was above 5 µM.

On to `CCCCOCc1cccc(C(O)c2ccc(OC)c(OCc3ccccc3)c2)c1` (stereo not shown) [6l], for which the IC50 is 2.98 µM.

Take `CCCCCOc1ccc(C(O)c2ccc(OC)c(OC)c2)c(F)c1` (stereo not shown) [35b]: the IC50 worked out at 1.3 µM.

Regarding `CCCCOCc1ccccc1C(O)c1ccc(OC)c(OCc2ccccc2)c1` (stereo not shown) [9b], the IC50 was above 5 µM.

For `COc1ccc(C(O)c2ccc(COC3CCCCC3)cc2)cc1OC` (stereo not shown) [3g], the half-maximal inhibitory concentration (IC50) stood at 0.4 µM.

As for `COc1ccc(C(O)c2ccc3c(c2)OCCN3C)cc1OC` (stereo not shown) [29b], the IC50 was above 5 µM.

Regarding `COc1ccc(C(O)c2ccc3cc(OC(C)C)ccc3c2)cc1OC` (stereo not shown) [32d], the IC50 is 2.62 µM.

On to `CCCOCc1ccc(C(O)c2ccc(OCc3ccccc3)c(OCC)c2)cc1` (stereo not shown) [3w], for which the IC50 was above 5 µM.

With `COc1ccc(C(=O)c2ccc3c(c2)C=CC(C)(C)O3)cc1OC` [36e], the IC50 was above 5 µM.

`COc1ccc(C(O)c2ccc(CBr)cc2)cc1OC` (stereo not shown) [21c]: the IC50 worked out at 1 µM.

Take `COc1ccc(C(O)c2ccc(COc3cccnc3)cn2)cc1OC` (stereo not shown) [3e]: the IC50 was above 5 µM.

For `CCCCCCOc1ccc2cc(C(O)c3ccc(OC)c(OC)c3)ccc2c1` (stereo not shown) [32a], the IC50 stood at 1.8 µM.

`CCCCOCc1cccc(C(O)c2ccc(OC)cc2)c1` (stereo not shown) [6g]: the IC50 was above 5 µM.

Consider `CCCCOc1ccc(C(O)c2ccc(OC)c(OC)c2)nc1` (stereo not shown) [15a], for which the IC50 is above 5 µM.

`COc1ccc(C(=O)c2ccc(C[C@H]3CCOC3)cc2)cc1OC` [36c]: the IC50 is above 5 µM.

Take `COc1ccc(C(O)c2ccc(OCCC3CCN(C(=O)OC(C)(C)C)CC3)cc2C)cc1OC` (stereo not shown) [35e, Tert-butyl 4-(2-(4-((3,4-dimethoxyphenyl)(hydroxy)methyl)-3-methylphenoxy)ethyl)piperidine-1-carboxylate]: the IC50 amounted to 0.27 µM.

For the compound `COc1ccc(C(O)c2ccc(OC3CCOC3)cc2OC)cc1OC` (stereo not shown) [35a], the IC50 came to 4.2 µM.

Take `COc1ccc(C(O)c2ccc3c(c2)CCO3)cc1OC` (stereo not shown) [29a]: the IC50 was above 5 µM.

As for `CCCOCc1ccc(C(O)c2ccc(OC)c(OCOC)c2)cc1` (stereo not shown) [3u], the IC50 is above 5 µM.

With `OC(c1ccccc1)c1cccc(COc2cccc3ccccc23)c1` (stereo not shown) [6d], the IC50 was above 5 µM.

`COc1ccc(OC)c(C(O)c2ccc(OC)c(OC)c2)c1` (stereo not shown) [24c]: the IC50 was above 5 µM.

As to `COc1ccc(C(O)c2cc3c(c(OC)c2)OC(C)(C)CC3)cc1OC` (stereo not shown) [27c], the IC50 came out at 4.2 µM.

Take `CCCCOCc1cccc(C(O)c2ccc(OC)cc2OC)c1` (stereo not shown) [6h]: the IC50 was 0.48 µM.

For the compound `CCOCc1ccc(C(O)c2ccc(OC)cc2)cc1` (stereo not shown) [3l], the IC50 is above 5 µM.

Consider `COc1ccc(C(O)c2ccc3sc(C)cc3c2)c(OC)c1` (stereo not shown) [29f], for which the IC50 was above 5 µM.

Consider `COc1ccc(C(O)c2ccc(COC3CCN(C(=O)OC(C)(C)C)CC3)cc2)cc1OC` (stereo not shown) [3o], for which the IC50 turned out to be 0.89 µM.

As to `COc1ccc(C(O)c2ccc3c(n2)C=CC(C)(C)O3)cc1OC` (stereo not shown) [26d], the IC50 was found to be 2.25 µM.

For `COc1ccc(C(O)c2ccc3sc(C)cc3c2)cc1OC` (stereo not shown) [29e], the IC50 turned out to be 1.03 µM.

Take `COc1ccc(C(=O)c2ccc(COC3CCN(C(=O)OC(C)(C)C)CC3)cc2)cc1OC` [36g]: the IC50 worked out at 4.5 µM.

As to `CCCCCOc1ccc(C(O)c2ccc(OC)c(OC)c2)c(C)c1` (stereo not shown) [35c], the IC50 stood at 0.43 µM.

`COc1ccc(C(O)c2ccc(OC)c(OC)c2)cc1OC` [24b]: the IC50 is above 5 µM.

On to `COc1ccc(C(O)c2ccc(COC3CCOC3)cc2)cc1OC` (stereo not shown) [3c], for which the IC50 worked out at 3.4 µM.

Turning to `COc1ccc(C(O)c2ccc(OCc3cnco3)cn2)cc1OC` (stereo not shown) [14d], the IC50 was above 5 µM.

Turning to `COc1ccc(C(O)c2ccc3ccccc3c2)cc1OC` (stereo not shown) [29c], the IC50 stood at 1.2 µM.

For `COc1ccc(C(O)c2ccc(OCCC3CCN(C(=O)OC(C)(C)C)CC3)cc2)cc1OC` (stereo not shown) [14c], the IC50 came out at 0.33 µM.

Consider `CCCCOCc1ccc(C(O)c2ccc(OC)cc2OC)cc1` (stereo not shown) [3j], for which the IC50 is 0.63 µM.

Consider `COc1ccc(C(=O)c2ccc(N3CCOCC3)cc2)cc1OC` [36d], for which the IC50 is above 5 µM.

With `CCCCCOc1ccc(C(O)c2ccc(OC)c(OC)c2)cc1` (stereo not shown) [14b], the IC50 amounted to 1.9 µM.

In the case of `COc1ccc(C(O)c2ccc(CO[C@@H]3CCN(C(=O)OC(C)(C)C)C3)cc2)cc1OC` (stereo partly shown) [3t], the IC50 is above 5 µM.

For `COc1ccc(C(O)c2ccc(OC(C)C)cn2)c(OC)c1` (stereo not shown) [15d], the IC50 is above 5 µM.

Regarding `COc1ccc(C(O)c2ccc(COC(C)C)cc2)cc1OC` (stereo not shown) [3n], the IC50 is above 5 µM.

For `COc1ccc(C(=O)c2ccc3c(n2)C=CC(C)(C)O3)cc1OC` [36h], the IC50 is above 5 µM.

`COc1ccc(C(O)c2cccc(COc3ccccc3)c2)cc1OC` (stereo not shown) [6a]: the IC50 is 1 µM.

As for `CCCOCc1ccc(C(O)c2ccc(OC)c(OCCC)c2)cc1` (stereo not shown) [3v], the IC50 worked out at 5 µM.

As to `COc1ccc(C(O)c2ccc3c(c2)OCCO3)cc1OC` (stereo not shown) [29d], the IC50 was found to be 4.18 µM.

Take `CCCOc1ccc2cc(C(O)c3ccc(OC)c(OC)c3)ccc2c1` (stereo not shown) [32b]: the IC50 came to 2.95 µM.

Consider `CCCCOCc1ccc(C(O)c2ccc(OC)c(OC)c2)cc1` (stereo not shown) [3i, (4-(Butoxymethyl)phenyl)(3,4-dimethoxyphenyl)methanol], for which the IC50 turned out to be 0.5 µM.

Take `CCCOCc1ccc(C(O)c2ccc(OC)c(OC)c2)cc1` (stereo not shown) [3m]: the IC50 is 0.3 µM.

As for `CCCCOc1cccc(C(O)c2cccc(COCCC)c2)c1` (stereo not shown) [6k], the IC50 is 3.8 µM.

As for `CCCOCc1ccccc1C(O)c1ccc(OC)c(OC)c1` (stereo not shown) [9a], the IC50 was above 5 µM.

Turning to `CCCCOCc1cccc(C(O)c2cccc(OCc3ccccc3)c2)c1` (stereo not shown) [6m], the IC50 was above 5 µM.

As for `COc1ccc([C@H](O)c2ccc(COC3CCOC3)cc2)cc1OC` (stereo partly shown) [3f], the IC50 is above 5 µM.

Regarding `COc1cc(C(O)c2ccc(OCCC3CCN(C(=O)OC(C)(C)C)CC3)cc2C)cc(OC)c1OC` (stereo not shown) [35g, Tert-butyl 4-(2-(4-(hydroxy(3,4,5-trimethoxyphenyl)methyl)-3-methylphenoxy)ethyl)piperidine-1-carboxylate], the IC50 worked out at 0.27 µM.

Regarding `COc1ccc(C(O)c2cccc(COc3cccc4ccccc34)c2)cc1OC` (stereo not shown) [6e], the IC50 was 1.83 µM.

As for `C=CCOc1ccc(C(O)c2ccc(OC)c(OC)c2)cc1` (stereo not shown) [14a], the IC50 was above 5 µM.

Regarding `COc1cc(C(O)c2ccc(OCC3CCN(C(=O)OC(C)(C)C)CC3)cc2C)cc(OC)c1OC` (stereo not shown) [35f], the IC50 turned out to be 0.27 µM.

On to `CCCCOCc1cccc(C(O)c2ccc(OC)c(OC)c2)c1` (stereo not shown) [6j], for which the IC50 was 2.45 µM.

As to `CCOCc1cccc(C(O)c2ccc(OC)cc2)c1` (stereo not shown) [6f], the IC50 is above 5 µM.
